Assay results: PubChem BioAssay (NCI)
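1) Cells in 96-well plates. 2) Compound, 48 h, 5 concentrations. 3) Linear interpolation between surrounding doses. 4) Unreached endpoint = highest concentration. GI50 marks 50% less growth. TGI denotes the concentration required for complete inhibition of growth.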

How the values were obtained:
Experiment in all cases: growth of human tumour cells (NCI), 48 h
[1] = tested on: OVCAR-3 ovarian
[2] = tested on: TK-10 renal
[3] = tested on: K-562 leukemia
[4] = tested on: A498 renal
[5] = tested on: SN12C renal
[6] = tested on: RXF 393 renal
[7] = tested on: RPMI-8226 leukemia
[8] = tested on: EKVX NSCLC
[9] = tested on: U251 CNS
[10] = tested on: SK-MEL-28 melanoma
[11] = tested on: SK-MEL-5 melanoma
[12] = tested on: HCT-116 colon
[13] = tested on: HL-60(TB) leukemia
[14] = tested on: CCRF-CEM leukemia
[15] = tested on: HOP-62 NSCLC
[16] = tested on: HCC-2998 colon
[17] = tested on: SNB-78 CNS
[18] = tested on: ACHN renal
[19] = tested on: IGROV1 ovarian
[20] = tested on: KM12 colon
[21] = tested on: 786-0 renal
[22] = tested on: HOP-18 NSCLC
[23] = tested on: NCI-H522 lung
[24] = tested on: NCI-H460 lung
[25] = tested on: UACC-257 melanoma
[26] = tested on: A549 NSCLC
[27] = tested on: HCT-15 colon
[28] = tested on: MOLT-4 leukemia
[29] = tested on: MALME-3M melanoma
[30] = tested on: SF-268 CNS
[31] = tested on: LOX IMVI melanoma
[32] = tested on: LXFL 529 NSCLC
[33] = tested on: SF-539 CNS
[34] = tested on: SK-MEL-2 melanoma
[35] = tested on: M14 melanoma
[36] = tested on: SNB-75 CNS
[37] = tested on: SF-295 CNS
[38] = tested on: OVCAR-8 ovarian
[39] = tested on: NCI-H226 lung
[40] = tested on: UO-31 renal
[41] = tested on: UACC-62 melanoma
[42] = tested on: KM20L2 colon
[43] = tested on: DMS 114 small cell lung
[44] = tested on: NCI-H23 lung
[45] = tested on: SK-OV-3 ovarian
[46] = tested on: SW-620 colon
[47] = tested on: OVCAR-5 ovarian
[48] = tested on: M19-MEL melanoma
[49] = tested on: COLO 205 colon
[50] = tested on: SNB-19 CNS
[51] = tested on: DU-145 prostate
[52] = tested on: MDA-MB-435
[53] = tested on: T-47D breast
[54] = tested on: NCI/ADR-RES ovarian
[55] = tested on: MCF7 breast
[56] = tested on: CAKI-1 renal
[57] = tested on: MDA-MB-231 breast
[58] = tested on: HOP-92 NSCLC
[59] = tested on: SR leukemia
[60] = tested on: HT29 colon
[61] = tested on: PC-3 prostate
[62] = tested on: MDA-N
[63] = tested on: BT-549 breast
[64] = tested on: OVCAR-4 ovarian
[65] = tested on: HS 578T breast

CCOC(=O)C(C)(C)Oc1ccc2c(=O)cc(-c3ccccc3)oc2c1
TGI [1]: 39 µM | TGI [2]: > 100 µM | TGI [3]: 31.2 µM | TGI [4]: > 100 µM | TGI [5]: > 100 µM | TGI [6]: 78.1 µM | TGI [7]: 37.8 µM | TGI [8]: 84.8 µM | TGI [9]: 44.9 µM | TGI [10]: 30.7 µM | TGI [11]: 28.2 µM | TGI [12]: 31.1 µM | TGI [13]: 32.8 µM | TGI [14]: 43.6 µM | TGI [15]: 41 µM | TGI [16]: > 100 µM | TGI [17]: 71.8 µM | TGI [18]: > 100 µM | TGI [19]: 78.4 µM | TGI [20]: 35.9 µM | TGI [21]: 37.7 µM | TGI [22]: 54.3 µM | TGI [23]: 28.5 µM | TGI [24]: > 100 µM | TGI [25]: 31.2 µM | TGI [26]: 59 µM | TGI [27]: 54.8 µM | TGI [28]: 32.5 µM | TGI [29]: 37.6 µM | TGI [30]: 56.3 µM | TGI [31]: 37.1 µM | TGI [32]: 35.7 µM | TGI [33]: 38.2 µM | TGI [34]: 31.5 µM | TGI [35]: 36.3 µM | TGI [36]: 57.6 µM | TGI [37]: 75 µM | TGI [38]: 51.4 µM | TGI [39]: 47 µM | TGI [40]: > 100 µM | TGI [41]: 33.7 µM | TGI [42]: 52.1 µM | TGI [43]: 44 µM | TGI [44]: 34.9 µM | TGI [45]: > 100 µM | TGI [46]: 48.5 µM | TGI [47]: > 100 µM | TGI [48]: 41.5 µM | TGI [49]: 36.8 µM | TGI [50]: 42.8 µM

CC[C@@]1(O)C(=O)NCc2c1cc1n(c2=O)Cc2cc3ccccc3nc2-1
GI50 [1]: 34.4 µM | TGI [1]: > 100 µM | GI50 [2]: > 100 µM | TGI [2]: > 100 µM | GI50 [3]: 4.4 µM | TGI [3]: > 100 µM | GI50 [51]: 2.28 µM | TGI [51]: > 45.8 µM | GI50 [4]: 3.95 µM | TGI [4]: 53.1 µM | GI50 [52]: 10.9 µM | TGI [52]: > 100 µM | GI50 [53]: 2.63 µM | TGI [53]: > 100 µM | GI50 [54]: 2.92 µM | TGI [54]: > 48.2 µM | GI50 [5]: 2.03 µM | TGI [5]: > 32.6 µM | GI50 [6]: 6.11 µM | TGI [6]: > 80.6 µM | GI50 [7]: 2.15 µM | TGI [7]: > 43.3 µM | GI50 [8]: > 47.9 µM | TGI [8]: > 100 µM | GI50 [9]: 2.39 µM | TGI [9]: > 42.8 µM | GI50 [55]: 0.823 µM | GI50 [10]: > 53.7 µM | TGI [10]: > 100 µM | GI50 [56]: 0.754 µM | TGI [56]: 11 µM | GI50 [11]: 2.77 µM | TGI [11]: 18.7 µM | GI50 [12]: 2.75 µM | TGI [12]: > 74.2 µM | GI50 [13]: 1.33 µM | TGI [13]: > 24 µM | GI50 [57]: > 100 µM | TGI [57]: > 100 µM | TGI [58]: > 29.4 µM | GI50 [14]: 0.253 µM | GI50 [15]: 0.42 µM | TGI [15]: 4.31 µM | GI50 [16]: 74 µM | TGI [16]: > 100 µM | GI50 [18]: 0.578 µM | GI50 [59]: 0.123 µM | TGI [59]: 0.503 µM | GI50 [19]: 12.1 µM | TGI [19]: > 100 µM | GI50 [20]: > 50.6 µM | TGI [20]: > 100 µM | GI50 [21]: 1.63 µM | TGI [21]: 9.93 µM | GI50 [23]: > 22.6 µM | TGI [23]: > 100 µM | GI50 [60]: 9.05 µM | TGI [60]: > 93.7 µM | GI50 [24]: 0.556 µM | TGI [24]: > 59.2 µM | GI50 [25]: 7.95 µM | TGI [25]: > 59.1 µM | GI50 [26]: 2.37 µM | TGI [26]: > 100 µM | GI50 [61]: 7.57 µM | TGI [61]: > 100 µM | GI50 [27]: 25.8 µM | TGI [27]: > 100 µM | GI50 [62]: 12.4 µM | TGI [62]: > 100 µM | GI50 [28]: 0.3 µM | TGI [28]: 2.2 µM | GI50 [29]: 83.9 µM | TGI [29]: > 100 µM | GI50 [30]: 0.706 µM | TGI [30]: > 100 µM | GI50 [31]: 2.06 µM | TGI [31]: > 100 µM | GI50 [33]: 1.71 µM | TGI [33]: 11 µM | GI50 [34]: > 100 µM | TGI [34]: > 100 µM | GI50 [35]: 1.49 µM | TGI [35]: 15.1 µM | GI50 [63]: 9.04 µM | TGI [63]: > 100 µM | GI50 [36]: 4.22 µM | TGI [36]: > 28.5 µM | GI50 [37]: 0.575 µM | TGI [37]: 13.2 µM | GI50 [38]: 2.12 µM | TGI [38]: > 44.8 µM | GI50 [39]: > 100 µM | TGI [39]: > 100 µM | GI50 [40]: 1.77 µM | TGI [40]: 13.1 µM | GI50 [41]: 1.87 µM | TGI [41]: > 100 µM | GI50 [44]: 1.8 µM | TGI [44]: 5.86 µM | GI50 [45]: 8.68 µM | TGI [45]: > 100 µM | GI50 [64]: 35.5 µM | TGI [64]: > 100 µM | GI50 [46]: 3.39 µM | TGI [46]: > 100 µM | GI50 [47]: 15.1 µM | TGI [47]: > 100 µM | GI50 [49]: 39.2 µM | TGI [49]: > 100 µM | GI50 [65]: > 100 µM | TGI [65]: > 100 µM | GI50 [50]: 1.92 µM | TGI [50]: > 100 µM
